Publication PMC4406354 (Journal of bone and mineral research : the official journal …, 2015)

Biological target: T1, tissue-nonspecific alkaline phosphatase (TNAP) (Homo sapiens, UniProt P05186)
T1 sequence (P05186 18-501): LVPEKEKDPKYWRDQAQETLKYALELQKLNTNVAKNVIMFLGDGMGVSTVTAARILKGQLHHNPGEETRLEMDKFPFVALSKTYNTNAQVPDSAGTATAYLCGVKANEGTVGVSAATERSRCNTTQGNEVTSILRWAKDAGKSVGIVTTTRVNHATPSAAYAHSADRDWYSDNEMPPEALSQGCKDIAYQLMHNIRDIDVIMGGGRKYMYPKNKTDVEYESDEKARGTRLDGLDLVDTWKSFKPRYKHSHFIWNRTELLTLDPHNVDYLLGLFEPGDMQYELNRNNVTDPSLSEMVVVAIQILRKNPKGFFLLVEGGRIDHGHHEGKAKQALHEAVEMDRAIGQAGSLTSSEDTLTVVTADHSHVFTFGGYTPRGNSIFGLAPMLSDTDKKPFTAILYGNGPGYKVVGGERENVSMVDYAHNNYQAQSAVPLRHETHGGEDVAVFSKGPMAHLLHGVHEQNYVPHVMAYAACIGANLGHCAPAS
Assay: in vitro TNAP inhibition IC50
Type: biochemical

COc1ccc(Cl)cc1S(=O)(=O)Nc1cncc(C(N)=O)c1 [SBI-425]
IC50: 14 nM
